Assay results reported in patent US12138256B2, “Treatment of cardiopulmonary disorders” (Bayer Aktiengesellschaft, priority 2021, dated 2024).

Tested on: sGC (cGMP)
Assay: Phase I, healthy male subjects, 7 days once daily inhalation: cGMP in blood samples (C-4.1)
Assay type: in vivo, human
Experimental: Healthy White male subjects, aged 18 to 45 years and with a body mass index (BMI) above/equal 18.5 and below/equal 29.9 kg/m2 were treated in a clinical pharmacological phase I study on seven days with inhaled once daily doses of 480 μg or 1000 μg or 2000 μg (2 capsules of 1000 μg) (nominal dose) of dry powder formulations of example 2 or Placebo. The subjects inhaled the drug powder from capsules (see under D-1, e.g. tables 22 and 23) inserted into a handheld inhalation device by one deep inhalative breath. The dry powder formulation of the drug is dispersed into the airstream and fine particles are transported into the deep parts of the lung where it is intended to cause a vasodilation of the blood vessels in PH patients for a substantial reduction of increased blood pressure in the central pulmonary blood vessels in PAH patients or other subtypes of PH. This effect cannot be shown in subjects with healthy lungs. In addition inhaled drug causes a dilation of the bronchial airways and thus also improves disease states of lung diseases in PH patients with pathological bronchoconstriction. This effect was measured via bodyplethysmography as reduction of Specific Airway Resistance in healthy subjects. After the deep inhalative breath the subjects hold breath for 2 seconds, so that the dry powder drug condenses from the airstream onto the surface of the deeper lung areas where it is deposited close to its site of intended pharmacological action. The drug dissolutes over the day and equilibrates the lung via lining fluid.
Drug activity in healthy men was controlled in the healthy subjects by analysing blood samples for cGMP, the immediate product of sGC pharmacological activation prior after the first and after the last drug inhalation of the 7 days treatment in comparison to measurements on the pretreatment day for all doses.
This prolonged activity in comparison to systemic drug concentration is caused by the mode of administration as inhaled dry powder, that deposits drug in the deeper part of the lung leading to an active drug concentration over 24 h after a once daily inhalation.
At 10 days after the first treatment, mean cGMP concentrations had returned close to the concentration observed at the pre-dosing day.

## O=C(O)c1ccc(CCN(CCc2ccccc2OCc2ccc(-c3ccc(C(F)(F)F)cc3)cc2Cl)[C@H]2CCCc3nc(C(=O)O)ccc32)cc1 [example 2, (5S)-{[2-(4-Carboxyphenyl)ethyl][2-(2-{[3-chloro-4′-(trifluoromethyl)biphenyl-4-yl]methoxy}phenyl)-ethyl]amino}-5,6,7,8-tetrahydroquinoline-2-carboxylic acid]
480 μg once daily inhaled, 0 D 02 H 00 M
  cyclic guanosine monophosphate changes from baseline: 1.73 ± 0.82 nmol/L
480 μg once daily inhaled, 0 D 04 H 00 M
  cyclic guanosine monophosphate changes from baseline: 3.04 ± 1.39 nmol/L
480 μg once daily inhaled, 0 D 06 H 00 M
  cyclic guanosine monophosphate changes from baseline: 3.33 ± 1.39 nmol/L
480 μg once daily inhaled, 0 D 08 H 00 M
  cyclic guanosine monophosphate changes from baseline: 2.94 ± 1.38 nmol/L
480 μg once daily inhaled, 0 D 12 H 00 M
  cyclic guanosine monophosphate changes from baseline: 2.10 ± 1.18 nmol/L
480 μg once daily inhaled, 0 D 15 H 00 M
  cyclic guanosine monophosphate changes from baseline: 1.53 ± 1.50 nmol/L
480 μg once daily inhaled, 1 D 00 H 00 M
  cyclic guanosine monophosphate changes from baseline: 0.84 ± 0.89 nmol/L
480 μg once daily inhaled, 2 D 00 H 00 M
  cyclic guanosine monophosphate changes from baseline: 0.74 ± 1.59 nmol/L
480 μg once daily inhaled, 3 D 00 H 00 M
  cyclic guanosine monophosphate changes from baseline: 1.00 ± 1.92 nmol/L
480 μg once daily inhaled, 4 D 00 H 00 M
  cyclic guanosine monophosphate changes from baseline: 1.46 ± 1.24 nmol/L
480 μg once daily inhaled, 5 D 00 H 00 M
  cyclic guanosine monophosphate changes from baseline: 1.50 ± 0.98 nmol/L
480 μg once daily inhaled, 6 D 00 H 00 M
  cyclic guanosine monophosphate changes from baseline: 1.92 ± 1.21 nmol/L
480 μg once daily inhaled, 7 D 00 H 00 M
  cyclic guanosine monophosphate changes from baseline: 1.68 ± 0.85 nmol/L
480 μg once daily inhaled, 7 D 02 H 00 M
  cyclic guanosine monophosphate changes from baseline: 4.22 ± 2.29 nmol/L
480 μg once daily inhaled, 7 D 04 H 00 M
  cyclic guanosine monophosphate changes from baseline: 5.39 ± 2.34 nmol/L
480 μg once daily inhaled, 7 D 06 H 00 M
  cyclic guanosine monophosphate changes from baseline: 6.44 ± 2.26 nmol/L
480 μg once daily inhaled, 7 D 08 H 00 M
  cyclic guanosine monophosphate changes from baseline: 5.19 ± 1.64 nmol/L
480 μg once daily inhaled, 7 D 12 H 00 M
  cyclic guanosine monophosphate changes from baseline: 3.71 ± 1.79 nmol/L
480 μg once daily inhaled, 7 D 15 H 00 M
  cyclic guanosine monophosphate changes from baseline: 3.04 ± 2.09 nmol/L
480 μg once daily inhaled, 8 D 00 H 00 M
  cyclic guanosine monophosphate changes from baseline: 1.69 ± 2.65 nmol/L
480 μg once daily inhaled, 8 D 12 H 00 M
  cyclic guanosine monophosphate changes from baseline: 0.69 ± 1.53 nmol/L
480 μg once daily inhaled, 9 D 00 H 00 M
  cyclic guanosine monophosphate changes from baseline: 0.13 ± 1.97 nmol/L
480 μg once daily inhaled, 9 D 12 H 00 M
  cyclic guanosine monophosphate changes from baseline: 1.10 ± 1.01 nmol/L
480 μg once daily inhaled, 10 D 00 H 00 M
  cyclic guanosine monophosphate changes from baseline: -0.00 ± 0.64 nmol/L
480 μg, 0 D 00 H 00 M
  cyclic guanosine monophosphate changes from baseline: 0.11 ± 1.10 nmol/L
480 μg, 0 D 00 H 00 M (baseline)
  cGMP, mean ± SD: 5.51 ± 1.00 nmol/L
480 μg, 0 D 02 H 00 M
  cGMP, mean ± SD: 7.24 ± 1.25 nmol/L
480 μg, 0 D 04 H 00 M
  cGMP, mean ± SD: 8.56 ± 1.45 nmol/L
480 μg, 0 D 06 H 00 M
  cGMP, mean ± SD: 8.84 ± 1.35 nmol/L
480 μg, 0 D 08 H 00 M
  cGMP, mean ± SD: 8.46 ± 1.59 nmol/L
480 μg, 0 D 12 H 00 M
  cGMP, mean ± SD: 7.61 ± 1.01 nmol/L
480 μg, 0 D 15 H 00 M
  cGMP, mean ± SD: 7.04 ± 1.50 nmol/L
480 μg, 1 D 00 H 00 M
  cGMP, mean ± SD: 6.36 ± 1.10 nmol/L
480 μg, 2 D 00 H 00 M
  cGMP, mean ± SD: 6.26 ± 2.17 nmol/L
480 μg, 3 D 00 H 00 M (trough)
  cGMP, mean ± SD: 6.51 ± 2.62 nmol/L
480 μg, 4 D 00 H 00 M (trough)
  cGMP, mean ± SD: 6.97 ± 1.96 nmol/L
480 μg, 5 D 00 H 00 M (trough)
  cGMP, mean ± SD: 7.01 ± 1.72 nmol/L
480 μg, 6 D 00 H 00 M (trough)
  cGMP, mean ± SD: 7.43 ± 1.69 nmol/L
480 μg, 7 D 00 H 00 M (trough)
  cGMP, mean ± SD: 7.19 ± 1.47 nmol/L
480 μg, 7 D 02 H 00 M
  cGMP, mean ± SD: 9.73 ± 3.00 nmol/L
480 μg, 7 D 04 H 00 M
  cGMP, mean ± SD: 10.90 ± 3.12 nmol/L
480 μg, 7 D 06 H 00 M
  cGMP, mean ± SD: 11.96 ± 2.80 nmol/L
480 μg, 7 D 08 H 00 M
  cGMP, mean ± SD: 10.70 ± 2.27 nmol/L
480 μg, 7 D 12 H 00 M
  cGMP, mean ± SD: 9.22 ± 2.37 nmol/L
480 μg, 7 D 15 H 00 M
  cGMP, mean ± SD: 8.56 ± 2.80 nmol/L
480 μg, 8 D 00 H 00 M
  cGMP, mean ± SD: 7.20 ± 3.23 nmol/L
480 μg, 8 D 12 H 00 M
  cGMP, mean ± SD: 6.20 ± 2.00 nmol/L
480 μg, 9 D 00 H 00 M
  cGMP, mean ± SD: 5.64 ± 2.53 nmol/L
480 μg, 9 D 12 H 00 M
  cGMP, mean ± SD: 6.61 ± 1.80 nmol/L
480 μg, 10 D 00 H 00 M
  cGMP, mean ± SD: 5.51 ± 1.39 nmol/L
480 μg, −0 D 09 H 00 M (baseline)
  cGMP, mean ± SD: 5.60 ± 1.08 nmol/L
480 μg, −0 D 09 H 00 M (pretreatment day)
  cyclic guanosine monophosphate changes from baseline: 0.20 ± 1.59 nmol/L
480 μg, −0 D 12 H 00 M (baseline)
  cGMP, mean ± SD: 5.62 ± 1.26 nmol/L
480 μg, −0 D 12 H 00 M (pretreatment day)
  cyclic guanosine monophosphate changes from baseline: 0.22 ± 1.17 nmol/L
480 μg, −0 D 16 H 00 M (baseline)
  cGMP, mean ± SD: 5.81 ± 1.09 nmol/L
480 μg, −0 D 16 H 00 M (pretreatment day)
  cyclic guanosine monophosphate changes from baseline: 0.41 ± 0.96 nmol/L
480 μg, −0 D 18 H 00 M (baseline)
  cGMP, mean ± SD: 5.61 ± 0.71 nmol/L
480 μg, −0 D 18 H 00 M (pretreatment day)
  cyclic guanosine monophosphate changes from baseline: 0.21 ± 1.74 nmol/L
480 μg, −0 D 20 H 00 M (baseline)
  cGMP, mean ± SD: 5.92 ± 0.83 nmol/L
480 μg, −0 D 20 H 00 M (pretreatment day)
  cyclic guanosine monophosphate changes from baseline: 0.52 ± 0.95 nmol/L
480 μg, −0 D 22 H 00 M (baseline)
  cGMP, mean ± SD: 6.57 ± 1.22 nmol/L
480 μg, −0 D 22 H 00 M (pretreatment day)
  cyclic guanosine monophosphate changes from baseline: 1.17 ± 1.00 nmol/L
480 μg, −1 D 02 H 00 M (baseline)
  cGMP, mean ± SD: 5.40 ± 1.41 nmol/L
1000 μg once daily inhaled, 0 D 02 H 00 M
  cyclic guanosine monophosphate changes from baseline: 3.26 ± 2.04 nmol/L
1000 μg once daily inhaled, 0 D 04 H 00 M
  cyclic guanosine monophosphate changes from baseline: 5.64 ± 2.54 nmol/L
1000 μg once daily inhaled, 0 D 06 H 00 M
  cyclic guanosine monophosphate changes from baseline: 6.78 ± 2.79 nmol/L
1000 μg once daily inhaled, 0 D 08 H 00 M
  cyclic guanosine monophosphate changes from baseline: 5.94 ± 2.65 nmol/L
1000 μg once daily inhaled, 0 D 12 H 00 M
  cyclic guanosine monophosphate changes from baseline: 4.86 ± 2.91 nmol/L
1000 μg once daily inhaled, 0 D 15 H 00 M
  cyclic guanosine monophosphate changes from baseline: 3.70 ± 2.59 nmol/L
1000 μg once daily inhaled, 1 D 00 H 00 M
  cyclic guanosine monophosphate changes from baseline: 1.26 ± 1.98 nmol/L
1000 μg once daily inhaled, 2 D 00 H 00 M
  cyclic guanosine monophosphate changes from baseline: 0.33 ± 1.99 nmol/L
1000 μg once daily inhaled, 3 D 00 H 00 M
  cyclic guanosine monophosphate changes from baseline: 2.31 ± 2.68 nmol/L
1000 μg once daily inhaled, 4 D 00 H 00 M
  cyclic guanosine monophosphate changes from baseline: 2.86 ± 2.63 nmol/L
1000 μg once daily inhaled, 5 D 00 H 00 M
  cyclic guanosine monophosphate changes from baseline: 3.59 ± 2.51 nmol/L
1000 μg once daily inhaled, 6 D 00 H 00 M
  cyclic guanosine monophosphate changes from baseline: 4.32 ± 2.82 nmol/L
1000 μg once daily inhaled, 7 D 00 H 00 M
  cyclic guanosine monophosphate changes from baseline: 4.74 ± 2.98 nmol/L
1000 μg once daily inhaled, 7 D 02 H 00 M
  cyclic guanosine monophosphate changes from baseline: 6.93 ± 2.99 nmol/L
1000 μg once daily inhaled, 7 D 04 H 00 M
  cyclic guanosine monophosphate changes from baseline: 10.84 ± 2.91 nmol/L
1000 μg once daily inhaled, 7 D 06 H 00 M
  cyclic guanosine monophosphate changes from baseline: 11.79 ± 3.70 nmol/L
1000 μg once daily inhaled, 7 D 08 H 00 M
  cyclic guanosine monophosphate changes from baseline: 11.00 ± 4.58 nmol/L
1000 μg once daily inhaled, 7 D 12 H 00 M
  cyclic guanosine monophosphate changes from baseline: 9.19 ± 5.26 nmol/L
1000 μg once daily inhaled, 7 D 15 H 00 M
  cyclic guanosine monophosphate changes from baseline: 8.00 ± 4.41 nmol/L
1000 μg once daily inhaled, 8 D 00 H 00 M
  cyclic guanosine monophosphate changes from baseline: 4.47 ± 3.81 nmol/L
1000 μg once daily inhaled, 8 D 12 H 00 M
  cyclic guanosine monophosphate changes from baseline: 2.30 ± 3.05 nmol/L
1000 μg once daily inhaled, 9 D 00 H 00 M
  cyclic guanosine monophosphate changes from baseline: 1.38 ± 2.59 nmol/L
1000 μg once daily inhaled, 9 D 12 H 00 M
  cyclic guanosine monophosphate changes from baseline: 1.02 ± 2.24 nmol/L
1000 μg once daily inhaled, 10 D 00 H 00 M
  cyclic guanosine monophosphate changes from baseline: 1.42 ± 2.87 nmol/L
1000 μg, 0 D 00 H 00 M
  cyclic guanosine monophosphate changes from baseline: -0.11 ± 1.62 nmol/L
1000 μg, 0 D 00 H 00 M (baseline)
  cGMP, mean ± SD: 4.91 ± 1.27 nmol/L
1000 μg, 0 D 02 H 00 M
  cGMP, mean ± SD: 8.17 ± 1.07 nmol/L
1000 μg, 0 D 04 H 00 M
  cGMP, mean ± SD: 10.56 ± 1.47 nmol/L
1000 μg, 0 D 06 H 00 M
  cGMP, mean ± SD: 11.69 ± 1.86 nmol/L
1000 μg, 0 D 08 H 00 M
  cGMP, mean ± SD: 10.86 ± 1.66 nmol/L
1000 μg, 0 D 12 H 00 M
  cGMP, mean ± SD: 9.77 ± 2.11 nmol/L
1000 μg, 0 D 15 H 00 M
  cGMP, mean ± SD: 8.61 ± 1.63 nmol/L
1000 μg, 1 D 00 H 00 M
  cGMP, mean ± SD: 6.17 ± 1.05 nmol/L
1000 μg, 2 D 00 H 00 M
  cGMP, mean ± SD: 5.24 ± 1.28 nmol/L
1000 μg, 3 D 00 H 00 M (trough)
  cGMP, mean ± SD: 7.22 ± 2.04 nmol/L
1000 μg, 4 D 00 H 00 M (trough)
  cGMP, mean ± SD: 7.77 ± 1.87 nmol/L
